Test results as given in patent US9115145B2, “Tocotrienol derivatives and associated methods” (FIRST TECH INTERNATIONAL LIMITED, priority 2011, dated 2015).
Like-named read-outs stand apart in the source and are kept apart here.

Legend:
[1] = tested on: MCF7 human breast cancer cell line; experiment: MTT assay of MCF7 cells; format: cell-based; details: Homo sapiens, media containing 1% fetal bovine serum
Procedure: (§1) MDA-MB-231 and MCF7 cells were plated at a density of 8×10^3 cells/well and 10^4 cells/well in 96-well culture plates, respectively. The compounds were fed in serum free media containing 5% and 1% fetal bovine serum for MDA-MB-231 and MCF7 cells, respectively.

[2] = tested on: leukemia and colon cancer cell lines; experiment: NCI screening at several concentrations (GI50, TGI, LC50); format: cell-based, human
Procedure: The human tumor cell lines of the cancer screening panel were grown in RPMI 1640 medium containing 5% fetal bovine serum and 2 mM L-glutamine. For a typical screening experiment, cells are inoculated into 96 well microtiter plates in 100 μL at plating densities ranging from 5000 to 40,000 cells/well depending on the doubling time of individual cell lines. After cell inoculation, the microtiter plates are incubated at 37° C., 5% CO2, 95% air and 100% relative humidity for 24 hours prior to addition of experimental drugs. After 24 hours, two plates of each cell line are fixed in situ with Trichloroacetic acid (“TCA”), to represent a measurement of the cell population for each cell line at the time of drug addition. Experimental drugs are solubilized in dimethyl sulfoxide at 400-fold the desired final maximum test concentration and stored frozen prior to use. At the time of drug addition, an aliquot of frozen concentrate is thawed and diluted to twice the desired final maximum test concentration with complete medium containing 50 ng/mL gentamicin. An aliquot of 100 μL of this drug dilution is added to the appropriate microtiter wells already containing 100 μL of medium, resulting in the required final drug concentrations. Following drug addition, the plates are incubated for an additional 48 h at 37° C., 5% CO2, 95% air, and 100% relative humidity. For adherent cells, the assay is terminated by the addition of cold TCA. Cells are fixed in situ by the gentle addition of 50 μL of cold 50% (w/v) TCA (final concentration, 10% TCA) and incubated for 60 min at 4° C. The supernatant is discarded, and the plates are washed five times with tap water and air dried. Sulforhodamine B (SRB) solution (100 μL) at 0.4% (w/v) in 1% acetic acid is added to each well, and plates are incubated for 10 min at room temperature. After staining, unbound dye is removed by washing five times with 1% acetic acid and the plates are air dried. Bound stain is subsequently solubilized with 10 mM trizma base, and the absorbance is read on an automated plate reader at a wavelength of 515 nm. For suspension cells, the methodology is the same except that the assay is terminated by fixing settled cells at the bottom of the wells by gently adding 50 μL of 80% TCA (final concentration, 16% TCA). FIGS. 37-74 indicate the growth inhibition effects of selected Compounds against a variety of cell lines based on the above described testing configuration. FIGS. 37-74 present the Growth percent for a given compound against the cell lines and both values and a bar chart of the difference between the mean growth percent and the growth percent which is an indication of the selectivity of the compound for that particular cell line. […]

[3] = tested on: MDA-MB-231 human breast cancer cell line; experiment: MTT assay of MDA-MB-231 cells; format: cell-based; details: Homo sapiens, media containing 5% fetal bovine serum
Procedure: as §1

[4] = tested on: MCF 10A non-tumorigenic mammary epithelial cells; experiment: MTT assay of MCF10A cells; format: cell-based, human; details: for IC50: Homo sapiens; for Selectivity index: IC50 for MCF 10A divided by IC50 for +SA cell line
Procedure, shortened: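 MCF 10A non-tumorigenic human mammary epithelial cells were seeded at 10×10^4 cells/well and treated with compounds in serum-free medium, final DMSO below 0.1%. Viability was read by MTT, and IC50 came from non-linear regression. Selectivity index = MCF 10A IC50 ÷ +SA cell line IC50.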

[5] = tested on: +SA mammary epithelial cells; experiment: MTT assay of +SA cells (antiproliferative activity); format: cell-based, mouse; details: described from FIG. 32 / text
Procedure: The antiproliferative activities of Compounds 3-44 against the highly metastatic malignant +SA mammary epithelial cells were evaluated by MTT assay. Materials for the assay were purchased from Sigma Chemical Company (St. Louis, Mo.) unless otherwise stated. The highly malignant +SA mouse mammary epithelial cell line was serially passaged at subconfluent cell density. The +SA mammary tumor cell line was derived from an adenocarcinoma that developed spontaneously in a BALB/c female mouse. +SA cells were maintained in serum-free defined medium consisting of Dulbecco's modified Eagle's medium (DMEM)/F12 containing 5 mg/mL bovine serum albumin (BSA), 10 […], 100 U/mL soybean trypsin inhibitor, 100 U/mL penicillin G, 0.1 mg/mL streptomycin, […], and 10 ng/mL epidermal growth factor. For subculturing, cells were rinsed twice with sterile Ca2+ and Mg2+-free phosphate buffered saline (PBS) and incubated in 0.05% trypsin containing 0.025% EDTA in PBS for 5 min at 37° C. The released cells were centrifuged, resuspended in fresh media and counted using hemocytometer. A stock solution of the compounds was prepared in DMSO. Once dissolved, this solution was added to a small volume of sterile 10% BSA in water and incubated overnight at 37° C. This solution conjugated to BSA was used to prepare various concentrations (0-40 μM) of tocotrienol analogs. DMSO was added to all treatment media such that the final DMSO concentration was the same in all treatment groups within a given experiment and was always less than 0.1%. For cytotoxic studies, cells were seeded at a density of 5×10^4 cells/well (+SA cells) or 1×10^5 cells/well (CL-S1 cells) (6 wells/group) in 24-well culture plates and allowed to grow in their respective control media. After 3 days incubation period (approximately 70% confluency), cells were divided equally into various treatment groups and exposed to their respective treatments for a 24 hours incubation period. Following the 24 hours treatment period, cell viability was measured using the MTT assay.
+SA Mammary epithelial cell viable number was determined by a 3-(4,5-dimethylthiazol-2yl)-2,5-diphenyl tetrazolium bromide (MTT) colorimetric assay. On the assay day, treatment medium was replaced with fresh control medium containing 0.42 mg/mL MTT, and the cells in 24-well plates were incubated at 37° C. for 4 hours. Afterward, the medium was removed, and the MTT crystals were dissolved in isopropyl alcohol (1 mL/well). The optical density of each sample was read at 570 nm on a microplate reader (SpectraCount, Packard BioScience Company), against a blank prepared from cell-free cultures. The number of cells/well was calculated against a standard curve prepared by plating various concentrations of cells, as determined by hemocytometer, at the start of each experiment.
Differences among the various treatment groups in +SA cell cytotoxic studies were determined by analysis of variance (ANOVA) followed by Dunnett's t-test. The difference of P<0.05 was considered to be statistically significant as compared with vehicle-treated controls unless separately described. Linear regression analysis of treatment effects on viable cell number in growth and cytotoxicity studies was used to determine the 50% growth inhibition concentration (IC50) for individual treatments.

[6] = tested on: MDA-MB-231 human breast cancer cells; experiment: Wound-healing assay (cell migration); format: cell-based; details: Homo sapiens; MDA-MB-231, wound-healing assay, dose response; read-out: IC50 antimigratory activity
Procedure, shortened: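 Scratch wounds made in confluent (>95%) monolayers, then compounds added in fresh medium (5 μM in screening; concentration range in follow-up), DMSO as negative control, triplicate. After 24 h serum-starved at 37 °C, cells fixed and Diff-Quick stained. Migrated cells counted per 400× field (≥3 fields); IC50 from concentration range.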

[7] = tested on: 60 human tumor cell lines; experiment: NCI in vitro screening against 60 human cell lines, single concentration; format: cell-based; details: 10 μM dose; negative values indicate cytotoxicity
Procedure: Compounds selected from Compounds 3-44 were provided to the National Cancer Institute for in vitro screening against 60-human cell lines for their ability to inhibit the growth of tumor cells in a full panel representing nine different organs (blood, lung, colon, CNS, skin, ovary, kidney, prostate, and breast). The compounds were tested at a single concentration of 10 μM, and the percentages of growth inhibitions over the sixty tested cell lines were determined. Compounds showing the highest activity were chosen for secondary assays using five different compound concentrations.
The human tumor cell lines of the cancer screening panel were grown in RPMI 1640 medium containing 5% fetal bovine serum and 2 mM L-glutamine. For a typical screening experiment, cells are inoculated into 96 well microtiter plates in 100 μL at plating densities ranging from 5000 to 40,000 cells/well depending on the doubling time of individual cell lines. After cell inoculation, the microtiter plates are incubated at 37° C., 5% CO2, 95% air and 100% relative humidity for 24 hours prior to addition of experimental drugs. After 24 hours, two plates of each cell line are fixed in situ with Trichloroacetic acid (“TCA”), to represent a measurement of the cell population for each cell line at the time of drug addition. Experimental drugs are solubilized in dimethyl sulfoxide at 400-fold the desired final maximum test concentration and stored frozen prior to use. At the time of drug addition, an aliquot of frozen concentrate is thawed and diluted to twice the desired final maximum test concentration with complete medium containing 50 ng/mL gentamicin. An aliquot of 100 μL of this drug dilution is added to the appropriate microtiter wells already containing 100 μL of medium, resulting in the required final drug concentrations. Following drug addition, the plates are incubated for an additional 48 h at 37° C., 5% CO2, 95% air, and 100% relative humidity. For adherent cells, the assay is terminated by the addition of cold TCA. Cells are fixed in situ by the gentle addition of 50 μL of cold 50% (w/v) TCA (final concentration, 10% TCA) and incubated for 60 min at 4° C. The supernatant is discarded, and the plates are washed five times with tap water and air dried. Sulforhodamine B (SRB) solution (100 μL) at 0.4% (w/v) in 1% acetic acid is added to each well, and plates are incubated for 10 min at room temperature. After staining, unbound dye is removed by washing five times with 1% acetic acid and the plates are air dried. Bound stain is subsequently solubilized with 10 mM trizma base, and the absorbance is read on an automated plate reader at a wavelength of 515 nm. For suspension cells, the methodology is the same except that the assay is terminated by fixing settled cells at the bottom of the wells by gently adding 50 μL of 80% TCA (final concentration, 16% TCA). FIGS. 37-74 indicate the growth inhibition effects of selected Compounds against a variety of cell lines based on the above described testing configuration. FIGS. 37-74 present the Growth percent for a given compound against the cell lines and both values and a bar chart of the difference between the mean growth percent and the growth percent which is an indication of the selectivity of the compound for that particular cell line.

[8] = MCF-10A, MCF10A cells, Table II, non-linear regression, read-out: MCF10A (IC50)
[9] = MCF 10A non-tumorigenic cells, Table I, read-out: IC50 MCF 10A

Row | Structure (SMILES) | IC50 [1] | GI50 [2] | IC50 [3] | IC50 [4, 8] | IC50 [4, 9] | Selectivity index [4] | antiproliferative activity against +SA mammary tumor cells (in words) [5] | IC50 [6] | mean percent growth across all 60 cell lines (mean 60) [7]
1 | CC(C)=CCC/C(C)=C/CC/C(C)=C/CC[C@]1(C)CCc2c3c(c(C)c(C)c2O1)OCN(CCCCCO)C3 [Compound 17, 5-((R)-5,6,8-trimethyl-8-((3E,7E)-4,8,12-trimethyltrideca-3,7,11-trienyl)-9,10-dihydrochromeno[5,6-e][1,3]oxazin-2(1H,3H,8H)-yl)pentan-1-ol] | > 20 µM | nanomolar | > 50 µM | 8.9 µM | 8.9 µM | 5.24 | very high activities | – | –
2 | CC(C)=CCC/C(C)=C/CC/C(C)=C/CC[C@]1(C)CCc2c3c(cc(C)c2O1)OCN(CCCCCCCCO)C3 [Compound 40, 8-((R)-6,8-dimethyl-8-((3E,7E)-4,8,12-trimethyltrideca-3,7,11-trienyl)-9,10-dihydrochromeno[5,6-e][1,3]oxazin-2(1H,3H,8H)-yl)octan-1-ol] | > 20 µM | nanomolar | 11.7 µM | 1.7 µM | 1.7 µM | 2.15 | – | 4.9 µM | negative
3 | CC(C)=CCC/C(C)=C/CC/C(C)=C/CC[C@]1(C)CCc2c3c(cc(C)c2O1)OCN(CCCCCCO)C3 [Compound 38, 6-((R)-6,8-dimethyl-8-((3E,7E)-4,8,12-trimethyltrideca-3,7,11-trienyl)-9,10-dihydrochromeno[5,6-e][1,3]oxazin-2(1H,3H,8H)-yl)hexan-1-ol] | > 20 µM | nanomolar | > 5 µM | 2.5 µM | 2.5 µM | 1.92 | – | 1.5 µM | negative
4 | CC(C)=CCC/C(C)=C/CC/C(C)=C/CC[C@]1(C)CCc2c3c(cc(C)c2O1)OCN(C1CCN(Cc2ccccc2)CC1)C3 [Compound 8, (R)-2-(1-benzylpiperidin-4-yl)-6,8-dimethyl-8-((3E,7E)-4,8,12-trimethyltrideca-3,7,11-trienyl)-1,2,3,8,9,10-hexahydrochromeno[5,6-e][1,3]oxazine] | – | nanomolar | – | – | – | – | – | – | –
